From PubChem BioAssay AID330 (DTP/NCI, 2004)
“And” between values parts separate entries of the source, which are not always exact repeats. Identical values can stand only once. Inconclusive results and toxic doses are left out.

System: P388 leukemia ip, CD2F1 mice, survival T/C
Experiment: NCI In Vivo Anticancer Drug Screen. Data for tumor model P388 Leukemia (intraperitoneal) in CD2F1 (CDF1) mice
Conditions: endpoint: median survival time, higher = longer survival
Procedure, shortened: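 Mice carrying the transplanted tumor received test compound or vehicle. Survival was recorded in each group, and the value is the treated-group measurement divided by that of the vehicle-treated control group.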

[1] = dose: 6.25 mg/kg/injection, schedule: Q01DX009 (ip), vehicle: saline
[2] = dose: 50.0 mg/kg/injection, schedule: Q01DX009 (ip), vehicle: saline with Tween-80
[3] = dose: 100.0 mg/kg/injection, schedule: Q01DX009 (ip), vehicle: saline with Tween-80
[4] = dose: 60.0 mg/kg/injection, schedule: Q01DX005 (ip), vehicle: saline with Tween-80
[5] = dose: 120.0 mg/kg/injection, schedule: Q01DX005 (ip), vehicle: saline with Tween-80
[6] = dose: 240.0 mg/kg/injection, schedule: Q01DX005 (ip), vehicle: saline with Tween-80
[7] = dose: 240.0 mg/kg/injection, schedule: Q01DX005 (ip), vehicle: Klucel (hydroxypropylcellulose) (HPC)
[8] = dose: 12.5 mg/kg/injection, schedule: Q01DX009 (ip), vehicle: saline with Tween-80
[9] = dose: 25.0 mg/kg/injection, schedule: Q01DX009 (ip), vehicle: saline with Tween-80
[10] = dose: 100.0 mg/kg/injection, schedule: Q04DX003 (ip), vehicle: saline with Tween-80
[11] = dose: 200.0 mg/kg/injection, schedule: Q04DX003 (ip), vehicle: saline with Tween-80
[12] = dose: 400.0 mg/kg/injection, schedule: Q04DX003 (ip), vehicle: saline with Tween-80
[13] = dose: 50.0 mg/kg/injection, schedule: Q01DX005 (ip), vehicle: Klucel (hydroxypropylcellulose) (HPC)
[14] = dose: 100.0 mg/kg/injection, schedule: Q01DX005 (ip), vehicle: Klucel (hydroxypropylcellulose) (HPC)
[15] = dose: 200.0 mg/kg/injection, schedule: Q01DX005 (ip), vehicle: Klucel (hydroxypropylcellulose) (HPC)
[16] = dose: 50.0 mg/kg/injection, schedule: Q01DX009 (ip), vehicle: Klucel (hydroxypropylcellulose) (HPC)
[17] = dose: 100.0 mg/kg/injection, schedule: Q01DX009 (ip), vehicle: Klucel (hydroxypropylcellulose) (HPC)
[18] = dose: 7.5 mg/kg/injection, schedule: Q01DX005 (ip), vehicle: saline with Tween-80
[19] = dose: 15.0 mg/kg/injection, schedule: Q01DX005 (ip), vehicle: saline with Tween-80
[20] = dose: 30.0 mg/kg/injection, schedule: Q01DX005 (ip), vehicle: saline with Tween-80
[21] = dose: 200.0 mg/kg/injection, schedule: Q01DX009 (ip), vehicle: saline with Tween-80

CC(C)(C)c1cc(C(O)(C(F)(F)F)C(F)(F)F)c(S)c(C(O)(C(F)(F)F)C(F)(F)F)c1
T/C (dose: 3.12 mg/kg/injection, schedule: Q01DX005 (ip), vehicle: suspension in saline): 103 % of control | T/C (dose: 6.25 mg/kg/injection, schedule: Q01DX005 (ip), vehicle: suspension in saline): 103 % of control | T/C (dose: 12.5 mg/kg/injection, schedule: Q01DX005 (ip), vehicle: suspension in saline): 103 % of control | T/C (dose: 25.0 mg/kg/injection, schedule: Q01DX005 (ip), vehicle: suspension in saline): 110 % of control and 112 % of control

COC(=O)c1[nH]c(=O)c2cccnc2c1O
T/C [1]: 104 % of control | T/C (dose: 12.5 mg/kg/injection, schedule: Q01DX009 (ip), vehicle: saline): 100 % of control | T/C (dose: 25.0 mg/kg/injection, schedule: Q01DX009 (ip), vehicle: saline): 92 % of control | T/C [2]: 103 % of control | T/C [3]: 98 % of control

CCOC(=O)c1[nH]c(=S)sc1N
T/C [4]: 99 % of control | T/C [5]: 92 % of control | T/C [6]: 90 % of control

CCOCc1ccc(C(=O)NCCCc2c(-c3ccccc3)nc(N)[nH]c2=O)cc1
T/C (dose: 3.75 mg/kg/injection, schedule: Q01DX005 (ip), vehicle: Klucel (hydroxypropylcellulose) (HPC)): 100 % of control and 103 % of control and 94 % of control | T/C (dose: 7.5 mg/kg/injection, schedule: Q01DX005 (ip), vehicle: Klucel (hydroxypropylcellulose) (HPC)): 93 % of control and 97 % of control | T/C (dose: 15.0 mg/kg/injection, schedule: Q01DX005 (ip), vehicle: Klucel (hydroxypropylcellulose) (HPC)): 89 % of control and 92 % of control and 97 % of control | T/C [7]: 86 % of control

CNC(=S)N/N=C(\C)c1ccccn1
T/C [8]: 107 % of control and 117 % of control | T/C [9]: 116 % of control

COc1ccc2c(c1)-c1c3c(cc4ccnc(c14)C2=O)OCO3
T/C (dose: 2.5 mg/kg/injection, schedule: Q01DX009 (ip), vehicle: saline with Tween-80): 107 % of control | T/C (dose: 5.0 mg/kg/injection, schedule: Q01DX009 (ip), vehicle: saline with Tween-80): 114 % of control | T/C (dose: 10.0 mg/kg/injection, schedule: Q01DX009 (ip), vehicle: saline with Tween-80): 122 % of control

O=C(COc1ccc(Cl)cc1Cl)NC(O)C(Cl)(Cl)Cl (centres undefined)
T/C [10]: 108 % of control | T/C [11]: 116 % of control | T/C [12]: 100 % of control

O=C(CCCCl)Oc1ccccc1
T/C [10]: 100 % of control | T/C [11]: 109 % of control | T/C [12]: 104 % of control

OCc1c(-c2ccc(Cl)cc2)c(-c2ccc(F)cc2)c2n1CCC2
T/C [13]: 98 % of control | T/C [14]: 100 % of control | T/C [15]: 103 % of control

C=CC(=NC(C)(C)C)Nc1ccccc1
T/C (dose: 6.25 mg/kg/injection, schedule: Q01DX009 (ip), vehicle: saline with Tween-80): 101 % of control | T/C [8]: 105 % of control | T/C [9]: 108 % of control

Oc1ccccc1-c1cc(-c2ccccc2)nc(NCCCNc2nc(-c3ccccc3)cc(-c3ccccc3O)n2)n1
T/C [13]: 92 % of control | T/C [14]: 88 % of control | T/C [15]: 86 % of control

COc1cc(C=C2C(=O)C=CC2=O)cc(OC)c1OC
T/C (dose: 1.25 mg/kg/injection, schedule: Q04DX002 (ip), vehicle: saline with Tween-80): 107 % of control | T/C (dose: 2.5 mg/kg/injection, schedule: Q04DX002 (ip), vehicle: saline with Tween-80): 99 % of control | T/C (dose: 5.0 mg/kg/injection, schedule: Q04DX002 (ip), vehicle: saline with Tween-80): 104 % of control

C/C(=N\Nc1ccccn1)c1ccccn1
T/C (dose: 6.25 mg/kg/injection, schedule: Q01DX005 (ip), vehicle: saline with Tween-80): 104 % of control | T/C (dose: 12.5 mg/kg/injection, schedule: Q01DX005 (ip), vehicle: saline with Tween-80): 100 % of control | T/C (dose: 25.0 mg/kg/injection, schedule: Q01DX005 (ip), vehicle: saline with Tween-80): 101 % of control

C=CCC(O)C(=O)OC1CC(C)CCC1C(C)(C)c1ccccc1 (centres undefined)
T/C [4]: 106 % of control | T/C [5]: 100 % of control | T/C [6]: 107 % of control

Cc1cccc(CC(C)(O)Cc2cccc(C)n2)n1
T/C (dose: 50.0 mg/kg/injection, schedule: Q01DX009 (ip), vehicle: other): 100 % of control | T/C (dose: 100.0 mg/kg/injection, schedule: Q01DX009 (ip), vehicle: other): 100 % of control | T/C (dose: 200.0 mg/kg/injection, schedule: Q01DX009 (ip), vehicle: other): 122 % of control

C=C(C)C(=NC(C)(C)C)Nc1ccccc1
T/C (dose: 10.0 mg/kg/injection, schedule: Q01DX005 (ip), vehicle: saline): 119 % of control | T/C (dose: 12.5 mg/kg/injection, schedule: Q01DX009 (ip), vehicle: Klucel (hydroxypropylcellulose) (HPC)): 121 % of control | T/C [8]: 116 % of control | T/C (dose: 25.0 mg/kg/injection, schedule: Q01DX009 (ip), vehicle: Klucel (hydroxypropylcellulose) (HPC)): 106 % of control | T/C [16]: 107 % of control | T/C (dose: 100.0 mg/kg/injection, schedule: Q01DX005 (ip), vehicle: saline): 152 % of control | T/C [17]: 107 % of control

CCCN(CCC)CCN1C(=O)NC(C)(c2ccccc2)C1=O (centres undefined)
T/C [18]: 100 % of control | T/C [19]: 101 % of control and 97 % of control | T/C [20]: 99 % of control and 103 % of control | T/C [4]: 101 % of control and 94 % of control and 97 % of control

O=S(=O)(c1ccccc1)N1OC1c1ccccc1 (centres undefined)
T/C [2]: 100 % of control | T/C (dose: 60.0 mg/kg/injection, schedule: Q01DX005 (ip), vehicle: Klucel (hydroxypropylcellulose) (HPC)): 104 % of control | T/C [3]: 86 % of control | T/C (dose: 120.0 mg/kg/injection, schedule: Q01DX005 (ip), vehicle: Klucel (hydroxypropylcellulose) (HPC)): 104 % of control | T/C [7]: 99 % of control

C=C(C)C(=O)OCCO (tested in a mixture with another compound)
T/C [3]: 100 % of control | T/C [21]: 100 % of control | T/C (dose: 400.0 mg/kg/injection, schedule: Q01DX009 (ip), vehicle: saline with Tween-80): 100 % of control

COc1ccc2c(c1)CSCC2=O
T/C [16]: 98 % of control | T/C [17]: 98 % of control | T/C (dose: 200.0 mg/kg/injection, schedule: Q01DX009 (ip), vehicle: Klucel (hydroxypropylcellulose) (HPC)): 100 % of control

Cc1cccc(/C=C/c2csnn2)n1
T/C [4]: 105 % of control | T/C [5]: 104 % of control | T/C [6]: 96 % of control

N#CC1(c2ccccc2)OC1(C#N)c1ccccc1 (centres undefined)
T/C [8]: 96 % of control | T/C [9]: 101 % of control | T/C (dose: 37.5 mg/kg/injection, schedule: Q01DX009 (ip), vehicle: acetone): 96 % of control | T/C [2]: 93 % of control | T/C (dose: 75.0 mg/kg/injection, schedule: Q01DX009 (ip), vehicle: acetone): 95 % of control | T/C (dose: 150.0 mg/kg/injection, schedule: Q01DX009 (ip), vehicle: acetone): 113 % of control

C[Si](C)(C)CSC#N
T/C [18]: 97 % of control | T/C [19]: 101 % of control | T/C [20]: 104 % of control

Cc1ccccc1NC(=S)NC1C(=O)Nc2ccccc21 (centres undefined)
T/C (dose: 50.0 mg/kg/injection, schedule: Q01DX005 (ip), vehicle: saline with Tween-80): 101 % of control | T/C (dose: 100.0 mg/kg/injection, schedule: Q01DX005 (ip), vehicle: saline with Tween-80): 107 % of control | T/C (dose: 200.0 mg/kg/injection, schedule: Q01DX005 (ip), vehicle: saline with Tween-80): 98 % of control

COc1ccc(Sc2c(C(=O)O)cccc2C(=O)O)cc1
T/C (dose: 100.0 mg/kg/injection, schedule: Q04DX002 (ip), vehicle: saline with Tween-80): 102 % of control | T/C (dose: 200.0 mg/kg/injection, schedule: Q04DX002 (ip), vehicle: saline with Tween-80): 100 % of control | T/C (dose: 400.0 mg/kg/injection, schedule: Q04DX002 (ip), vehicle: saline with Tween-80): 101 % of control

CCCCCCCCCCCCCCCC[N+](C)(CCO)Cc1cnc[nH]1 (centres undefined)
T/C (dose: 1.56 mg/kg/injection, schedule: Q01DX009 (ip), vehicle: saline): 110 % of control | T/C (dose: 3.12 mg/kg/injection, schedule: Q01DX009 (ip), vehicle: saline): 111 % of control | T/C [1]: 118 % of control

Cc1cc(N)c(C)c(Br)c1C
T/C [2]: 106 % of control | T/C [3]: 99 % of control | T/C [21]: 106 % of control
